Legend:
CCK receptors = target: T1, CCK receptors (Cavia porcellus, UniProt Q63931); experiment: Radioligand binding ([125I]Bolton-Hunter CCK8) in guinea pig pancreatic membranes; conditions: displacement of [125I]BH-CCK8, pancreatic membranes, 37°C for 150 min, Hill analysis; read-out: IC₅₀ (uM) pancreas
T1 construct: Cortical and pancreatic membranes were prepared as described; from tissue; host or cells: guinea pig pancreas membranes
T1 sequence (Q63931 1-430): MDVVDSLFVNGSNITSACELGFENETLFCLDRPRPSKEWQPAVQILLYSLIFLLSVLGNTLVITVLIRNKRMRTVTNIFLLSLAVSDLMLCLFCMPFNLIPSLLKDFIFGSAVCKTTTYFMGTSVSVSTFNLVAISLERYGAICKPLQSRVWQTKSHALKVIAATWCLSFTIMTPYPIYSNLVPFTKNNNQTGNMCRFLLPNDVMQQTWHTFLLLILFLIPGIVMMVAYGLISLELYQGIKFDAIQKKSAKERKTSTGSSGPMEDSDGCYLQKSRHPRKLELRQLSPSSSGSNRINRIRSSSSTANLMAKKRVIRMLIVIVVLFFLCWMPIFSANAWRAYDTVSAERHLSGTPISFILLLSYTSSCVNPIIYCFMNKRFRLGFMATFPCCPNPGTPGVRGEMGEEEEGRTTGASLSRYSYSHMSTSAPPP
Procedure: EGTA, HEPES, BSA were purchased from Sigma Chemical Co. (St. Louis, MO). […] Male ginea pigs, 250 to 325 g, were obtained from Scientific Small Animal Laboratory and Farm (Arlington Heights, IL). Collangenase, code CLSPA was purchased from Worthington (Frehold, NJ).
In brief, pancreas and cortex were removed and rinsed with ice-cold saline. Visible fat and connective tissues were removed from the pancreas. Tissues were weighed and homogenized in approximately 25 mL of ice-cold 50 mM Tris-HCl buffer, pH 7.4 at 4°C with a Brinkman Polytron for 30 sec, setting 7. The homogenates were centrifuged for 10 min at 1075 x g and the pellet was discarded. The supernantants were saved and centrifuged at 38,730 x g for 20 min. The resultant pellets were rehomogenized in 25 mL of 50 mM Tris-HCl buffer with a Teflon-glass homogenizer, 5 up and down strokes. The homogenates were centrifuged again at 38,730 x g for 20 min. The pellets were then resuspended in 20 mM HEPES, containing 1 mM EGTA, 118 mM NaCl, 4.7 mM KCl, 5mM MgCl₂, 100 uM bestatin, 3 uM phosphoramidon, pH 7.4 at 22°C with a Teflon-glass homogenizer, 15 up and down strokes. The resuspension volume used for the cortex was 15 mL per g of original wet weight and 60 mL per g for pancreas.
The final BSA concentration was 0.1%. The cortical tissues were incubated at 30°C for 150 min. and pancreatic tissues were incubated at 37°C for 150 min. Incubations were terminated by filtration using Skatron Cell Harvester and SS32 microfiber filter mats. […] IC₅₀s were determined from the Hill analysis.

[1] = target: T2, CCK-B receptors on small cell lung cancer cell lines (Homo sapiens, UniProt P32239); experiment: Measurement of [Ca++]i changes in NCI-H345 and H209 cell lines (indo-1 fluorescence); type: cell-based; conditions: read-out: Intrinsic Activity Relative to CCK-8
T2 construct: endogenous in cells; host or cells: NCI-H345 and H209 small cell lung cancer cells
T2 sequence (P32239 1-447): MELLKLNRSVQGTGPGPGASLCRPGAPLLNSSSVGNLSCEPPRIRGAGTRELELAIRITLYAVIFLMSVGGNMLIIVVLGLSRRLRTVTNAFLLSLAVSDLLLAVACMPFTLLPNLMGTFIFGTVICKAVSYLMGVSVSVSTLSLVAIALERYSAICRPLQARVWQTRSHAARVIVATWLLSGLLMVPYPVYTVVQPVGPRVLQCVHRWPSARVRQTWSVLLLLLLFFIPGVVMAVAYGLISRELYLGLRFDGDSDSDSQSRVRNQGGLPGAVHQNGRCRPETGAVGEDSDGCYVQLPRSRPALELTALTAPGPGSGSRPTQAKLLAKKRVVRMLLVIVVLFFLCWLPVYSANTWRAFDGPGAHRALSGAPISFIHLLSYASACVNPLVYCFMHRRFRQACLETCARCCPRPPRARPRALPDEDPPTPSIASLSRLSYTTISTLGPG
Procedure: Protocol for Measuring [Ca++]i Changes in NCI-H345 and H209 Cell Lines
Culture conditions were as described (D.G. Yoder, T.W. Moody, Peptides, 8, 103 (1987), except that the medium was modified to RPMI 1640 with 2.5% fetal bovine serum (heat inactivated), 5µg/l sodium selenite, 5 mg/l human transferrin, 5 mg/l insulin, penicillin (100 U/l) and streptomycin (100 µg/l). To measure intracellular Ca²⁺, cells were loaded with 1 µM of indo-1,AM, for 60 min at 37°C. The cells were centrifuged at 750 x g for 5 min and resuspended in 40 mL Buffer F (Dulbecco's phosphate buffered saline containing 0.1% glucose, pH 7.4). The cells were counted then twice washed by centrifugation. The final pellet was resuspended (approximately 1 x 10⁶ cells/mL) in Buffer F. The cells were thermally equilibrated in a thermostated cuvette (37°C) for 2 min prior to base-line fluorescence measurement. Fluorescence measurements were made with an SLM 8000C spectrofluorimeter equipped with magnetic microstirrer and polarizing filters. Measurements with indo-1-loaded cells were obtained at excitation wavelength of 350 nm and emission wavelength of 480 and 405 nM and the time interval for the measurements was 0.5 sec.

**Q.** What does the source list for `CCC[C@H]1CCN(C(=O)[C@@H]2Cc3c[nH]c4cccc(c34)CC(=O)N2)[C@@H]1C(=O)N[C@@H](CC(=O)O)C(=O)N[C@@H](Cc1ccccc1)C(N)=O` [Example 48, Ctp-Tpp-Asp-Phe-NH₂]?
**A.** IC50 (CCK receptors): 3.5 µM; Emax [1]: 103%

From patent EP0405506A1, “Tetrapeptide type-B CCK receptor ligands” (ABBOTT LABORATORIES, priority 1989, dated 1991)
